Patent US12006294B2, “Therapeutic compounds” (REGENTS OF THE UNIVERSITY OF MINNESOTA, priority 2017, dated 2024)
Like-named read-outs stand apart in the source and are kept apart here.

What was measured:
CAD5 cells = assay type: cell-based
Hela Cells = experiment: Cellular ER stress model (tunicamycin, WST-8 cell viability); conditions: for AntiERStress (% Cell Survival): HeLa cells, tunicamycin 48 hours, WST-8; for viability at 2.5 µM: Homo sapiens, HeLa, 48 h
mice = experiment: Acetaminophen hepatotoxicity (ALT, TBARS, survival)
[1] = read-out: % Cell Survival Cmpd(2.5 μM) + Tuni, Hela cells, compound 2.5 μM + tunicamycin, WST-8 viability 48 hours after tunicamycin treatment
[2] = read-out: Compounds ERS (vs Tn), ERS activity vs Tuni = % cell survival (compound)/% cell survival (tunicamycin), compound 2.5 μM

SMILES	1/Elispot (CAD5 cells)	AntiPrion (Number of Cells × 10^4) (CAD5 cells)	EliSpot (Spots/10000 Cells) (CAD5 cells)	Elispot (vs PC) (CAD5 cells)	AntiERStress (% Cell Survival) (Hela Cells)	viability at 2.5 µM (Hela Cells; [1])	viability at 2.5 µM (Hela Cells; [2])	elevated ALT levels after acetaminophen overdose (mice; delayed administration post APAP administration)	hepatotoxicity of acetaminophen (ALT levels) (mice; pretreatment (30 min) before acetaminophen)	animals died before completion of the study (mice; pretreatment, acetaminophen overdose)	animals died before completion of the study (mice; treated four hours after acetaminophen overdose)
N=C(N)N/N=C\c1c(Cl)cc(O)cc1Cl [BC1-171-1]	1.00	16 × 10^4	1300 Spots/10000 Cells	1.00	52.54 % Cell Survival	–	–	–	–	–	–
Clc1cc(Cl)cc(NC2=NCCN2)c1 [BC1-242-2, N-(3,5-dichlorophenyl)-4,5-dihydro-1H-imidazol-2-amine]	1.86	50 × 10^4	700 Spots/10000 Cells	0.54	57.56 % Cell Survival	–	–	–	–	–	–
N=C(N)NCCc1c(Cl)cccc1Cl [BC1-252-2, 1-(2,6-dichlorophenethyl)guanidine]	0.72	8 × 10^4	1800 Spots/10000 Cells	1.38	49.49 % Cell Survival	–	–	–	–	–	–
N=C(N)Nc1c(Cl)cccc1Cl [BC1-256-2, 1-(2,6-dichlorophenyl)guanidine]	1.44	32 × 10^4	900 Spots/10000 Cells	0.69	54.77 % Cell Survival	–	–	–	–	–	–
C/C(=N\NC(=N)N)c1c(Cl)cccc1Cl [BC1-259-2, (E)-2-(1-(2,6-dichlorophenyl)ethylidene)hydrazinecarboximidamide]	1.63	26 × 10^4	800 Spots/10000 Cells	0.62	62.87 % Cell Survival	–	–	–	–	–	–
Cl.NC(=O)N/N=C/c1c(Cl)cccc1Cl [BC1-262-1, (E)-2-(2,6-dichlorobenzylidene)hydrazinecarboxamide hydrochloride]	1.86	53 × 10^4	700 Spots/10000 Cells	0.54	64.7 % Cell Survival	–	–	–	–	–	–
N=C(N)Nn1ccnc1-c1c(Cl)cccc1Cl [BC1-267-2, 1-(2-(2,6-dichlorophenyl)-1H-imidazol-1-yl)guanidine]	1.00	18 × 10^4	1300 Spots/10000 Cells	1.00	64.26 % Cell Survival	42.3%	102%	–	–	–	–
N=C(N)N/N=C/c1c(Cl)ccc(Cl)c1Cl [BC1-282-1, (E)-2-(2,3,6-trichlorobenzylidene)hydrazinecarboximidamide acetate]	0.76	10 × 10^4	1700 Spots/10000 Cells	1.31	101.2576 % Cell Survival	71.6%	172%	–	–	–	–
N=C(N)N/N=C/c1ccccc1 [BC1-295-1, (E)-2-benzylidenehydrazinecarboximidamide acetate]	2.17	37 × 10^4	600 Spots/10000 Cells	0.46	60.58 % Cell Survival	–	–	–	–	–	–
N=C(N)N/N=C/c1ccccc1Br [BC1-297-1, (E)-2-(2-bromobenzylidene)hydrazinecarboximidamide acetate]	0.93	8 × 10^4	1400 Spots/10000 Cells	1.08	90.49 % Cell Survival	–	–	–	–	–	–
Cc1ccccc1/C=N/NC(=N)N [BC2-3-1, (E)-2-(2-methylbenzylidene)hydrazinecarboximidamide acetate]	1.86	28 × 10^4	700 Spots/10000 Cells	0.54	82.07 % Cell Survival	–	–	–	–	–	–
N=C(N)N/N=C/c1c(F)cccc1Cl [BC2-5-1, (E)-2-(2-chloro-6-fluorobenzylidene)hydrazinecarboximidamide acetate]	1.63	34 × 10^4	800 Spots/10000 Cells	0.62	104.9813 % Cell Survival	–	–	–	–	–	–
N=C(N)N/N=C/c1cccc(Cl)c1Cl [BC2-7-1, (E)-2-(2,3-dichlorobenzylidene)hydrazinecarboximidamide acetate]	1.00	3 × 10^4	1300 Spots/10000 Cells	1.00	100.0136 % Cell Survival	66.7%	160%	–	–	–	–
N=C(N)N/N=C/c1cccc(Cl)c1 [BC2-9-1, (E)-2-(3-chlorobenzylidene)hydrazinecarboximidamide acetate]	1.44	33 × 10^4	900 Spots/10000 Cells	0.69	93.32 % Cell Survival	–	–	–	–	–	–
N=C(N)N/N=C/c1ccccc1F [BC2-11-1, (E)-2-(2-fluorobenzylidene)hydrazinecarboximidamide acetate]	1.63	38 × 10^4	800 Spots/10000 Cells	0.62	52.43 % Cell Survival	–	–	–	–	–	–
N=C(N)N/N=C/c1ccc(Cl)cc1 [BC2-13-1, (E)-2-(4-chlorobenzylidene)hydrazinecarboximidamide acetate]	0.72	9 × 10^4	1800 Spots/10000 Cells	1.38	68.97 % Cell Survival	–	–	–	–	–	–
N=C(N)N/N=C/c1ccc(F)cc1Cl [BC2-17-1, (E)-2-(2-chloro-4-fluorobenzylidene)hydrazinecarboximidamide acetate]	1.00	16 × 10^4	1300 Spots/10000 Cells	1.00	104.8795 % Cell Survival	–	–	–	–	–	–
N=C(N)N/N=C/c1ccc(Cl)cc1F [BC2-19-1, (E)-2-(4-chloro-2-fluorobenzylidene)hydrazinecarboximidamide acetate]	0.72	5 × 10^4	1800 Spots/10000 Cells	1.38	64.15 % Cell Survival	–	–	–	–	–	–
COc1cccc(Cl)c1/C=N/NC(=N)N [BC2-25-1, (E)-2-(2-chloro-6-methoxybenzylidene)hydrazinecarboximidamide acetate]	1.08	20 × 10^4	1200 Spots/10000 Cells	0.92	51.7 % Cell Survival	–	–	–	–	–	–
N=C(N)N/N=C/c1c(Cl)cccc1C(F)(F)F [BC2-45-1, (E)-2-(2-chloro-6-(trifluoromethyl)benzylidene)hydrazinecarboximidamide acetate]	0.62	10 × 10^4	2100 Spots/10000 Cells	1.62	99.19 % Cell Survival	–	–	–	–	–	–
N=C(N)N/N=C/c1c(I)cccc1I [BC2-55-2, (E)-2-(2,6-diiodobenzylidene)hydrazinecarboximidamide]	1.00	4 × 10^4	1300 Spots/10000 Cells	1.00	70.69 % Cell Survival	–	–	–	–	–	–
N=C(N)N/N=C/c1c(O)cccc1Cl [BC2-59-1, (E)-2-(2-chloro-6-hydroxybenzylidene)hydrazinecarboximidamide acetate]	0.93	15 × 10^4	1400 Spots/10000 Cells	1.08	104.6895 % Cell Survival	–	–	–	–	–	–
N=C(N)N/N=C/c1c(N)cccc1Cl [BC2-61-1, (E)-2-(2-amino-6-chlorobenzylidene)hydrazinecarboximidamide]	0.93	10 × 10^4	1400 Spots/10000 Cells	1.08	86.56 % Cell Survival	–	–	–	–	–	–
N=C(N)N/N=C/c1ccccc1N [BC2-61-2, (E)-2-(2-aminobenzylidene)hydrazinecarboximidamide]	1.63	50 × 10^4	800 Spots/10000 Cells	0.62	58.21 % Cell Survival	–	–	–	–	–	–
CC(=O)N[C@@H](CS)C(=O)O [N-acetyl cysteine]	–	–	–	–	–	–	–	less effective in limiting elevated ALT levels	less effective in limiting the hepatotoxicity of acetaminophen	Twenty-five	Eighty-eight
